Numbers after ± are expanded uncertainties.
Experiment: xn = mol fraction of the nth substance listed
Conditions: Fluid (supercritical or subcritical phases), Constant-volume piezometry

N [ammonia] + O
Conditions | mass density [kg/m3]
253.18 K, 483.5 kPa, x1 = 0.1386 | 956.4 ± 0.21
254.14 K, 619.3 kPa, x1 = 0.1386 | 956.35 ± 0.21
257.06 K, 1159.1 kPa, x1 = 0.1386 | 956.19 ± 0.21
259.15 K, 1375.1 kPa, x1 = 0.1086 | 964.04 ± 0.22
259.15 K, 1646.6 kPa, x1 = 0.1386 | 956.07 ± 0.21
260.13 K, 3144.3 kPa, x1 = 0.0999 | 971.4 ± 0.26
260.15 K, 1417.1 kPa, x1 = 0.1086 | 963.99 ± 0.22
260.15 K, 3759 kPa, x1 = 0.0955 | 968.65 ± 0.23
261.02 K, 2146.1 kPa, x1 = 0.1386 | 955.96 ± 0.21
261.14 K, 1483.6 kPa, x1 = 0.1086 | 963.95 ± 0.22
261.15 K, 3146.8 kPa, x1 = 0.0999 | 971.36 ± 0.22
261.15 K, 3737.1 kPa, x1 = 0.0955 | 968.61 ± 0.23
262.12 K, 3739.8 kPa, x1 = 0.0955 | 968.57 ± 0.23
262.15 K, 1572 kPa, x1 = 0.1086 | 963.9 ± 0.22
262.15 K, 3173.9 kPa, x1 = 0.0999 | 971.31 ± 0.23
263.13 K, 1676.5 kPa, x1 = 0.1086 | 963.85 ± 0.22
263.13 K, 1686.6 kPa, x1 = 0.1086 | 963.85 ± 0.22
263.13 K, 3221.1 kPa, x1 = 0.0999 | 971.27 ± 0.23
263.16 K, 3225.1 kPa, x1 = 0.0999 | 971.27 ± 0.23
263.16 K, 3766.5 kPa, x1 = 0.0955 | 968.52 ± 0.24
263.96 K, 16220 kPa, x1 = 0.0606 | 987.12 ± 0.26
264.11 K, 3813.7 kPa, x1 = 0.0955 | 968.48 ± 0.24
264.14 K, 3297.9 kPa, x1 = 0.0999 | 971.22 ± 0.23
264.15 K, 1824.1 kPa, x1 = 0.1086 | 963.8 ± 0.22
265 K, 16117 kPa, x1 = 0.0606 | 987.08 ± 0.26
265.13 K, 3469.4 kPa, x1 = 0.1386 | 955.71 ± 0.22
265.15 K, 1981.7 kPa, x1 = 0.1086 | 963.75 ± 0.21
265.15 K, 3396.5 kPa, x1 = 0.0999 | 971.17 ± 0.23
265.15 K, 3889.7 kPa, x1 = 0.0955 | 968.43 ± 0.24
265.18 K, 5311.9 kPa, x1 = 0.0644 | 979.94 ± 0.23
265.38 K, 8334.6 kPa, x1 = 0.064 | 980.35 ± 0.23
265.62 K, 811.9 kPa, x1 = 0.0591 | 975.65 ± 0.21
265.99 K, 16054 kPa, x1 = 0.0606 | 987.04 ± 0.26
266.12 K, 16223 kPa, x1 = 0.047 | 989.78 ± 0.26
266.14 K, 745.3 kPa, x1 = 0.0591 | 975.64 ± 0.21
266.14 K, 8277 kPa, x1 = 0.064 | 980.32 ± 0.24
266.15 K, 2619 kPa, x1 = 0.0582 | 979.8 ± 0.22
266.63 K, 698.1 kPa, x1 = 0.0591 | 975.62 ± 0.21
267.09 K, 4204.5 kPa, x1 = 0.1386 | 955.58 ± 0.22
267.13 K, 2495.5 kPa, x1 = 0.0582 | 979.77 ± 0.22
267.14 K, 8221.5 kPa, x1 = 0.064 | 980.28 ± 0.24
267.15 K, 298 kPa, x1 = 0.1436 | 952.4 ± 0.21
267.15 K, 2355.6 kPa, x1 = 0.1086 | 963.64 ± 0.21
267.15 K, 3654.7 kPa, x1 = 0.0999 | 971.07 ± 0.23
267.15 K, 16033 kPa, x1 = 0.047 | 989.74 ± 0.26
267.16 K, 634.7 kPa, x1 = 0.0591 | 975.6 ± 0.21
267.17 K, 5193.7 kPa, x1 = 0.0644 | 979.87 ± 0.23
268.02 K, 15974 kPa, x1 = 0.0606 | 986.96 ± 0.26
268.1 K, 7316.4 kPa, x1 = 0.0513 | 984.85 ± 0.24
268.15 K, 723.3 kPa, x1 = 0.1436 | 952.33 ± 0.21
268.17 K, 2415.7 kPa, x1 = 0.0582 | 979.73 ± 0.22
268.17 K, 15948 kPa, x1 = 0.047 | 989.7 ± 0.26
269 K, 15979 kPa, x1 = 0.0606 | 986.92 ± 0.26
269.1 K, 7244.1 kPa, x1 = 0.0513 | 984.81 ± 0.23
269.1 K, 7256.7 kPa, x1 = 0.0513 | 984.81 ± 0.23
269.11 K, 500.6 kPa, x1 = 0.0591 | 975.52 ± 0.21
